Key:
[1] = system: HeLa; assay: Cytotoxicity against human HeLa cells assessed as decrease in cell proliferation up to 100 uM after 72 hrs by calcein AM staining-based assay
[2] = biological target: Serine/threonine-protein kinase Sgk1 (Homo sapiens) (UniProt O00141); assay: Inhibition of SGK1 (unknown origin) assessed as residual enzyme activity at 1 uM relative to untreated control
[3] = biological target: Eukaryotic elongation factor 2 kinase (Homo sapiens) (UniProt O00418); assay: Inhibition of EF2K (unknown origin) assessed as residual enzyme activity at 1 uM relative to untreated control
Chain of Eukaryotic elongation factor 2 kinase (Homo sapiens) (O00418 whole entry): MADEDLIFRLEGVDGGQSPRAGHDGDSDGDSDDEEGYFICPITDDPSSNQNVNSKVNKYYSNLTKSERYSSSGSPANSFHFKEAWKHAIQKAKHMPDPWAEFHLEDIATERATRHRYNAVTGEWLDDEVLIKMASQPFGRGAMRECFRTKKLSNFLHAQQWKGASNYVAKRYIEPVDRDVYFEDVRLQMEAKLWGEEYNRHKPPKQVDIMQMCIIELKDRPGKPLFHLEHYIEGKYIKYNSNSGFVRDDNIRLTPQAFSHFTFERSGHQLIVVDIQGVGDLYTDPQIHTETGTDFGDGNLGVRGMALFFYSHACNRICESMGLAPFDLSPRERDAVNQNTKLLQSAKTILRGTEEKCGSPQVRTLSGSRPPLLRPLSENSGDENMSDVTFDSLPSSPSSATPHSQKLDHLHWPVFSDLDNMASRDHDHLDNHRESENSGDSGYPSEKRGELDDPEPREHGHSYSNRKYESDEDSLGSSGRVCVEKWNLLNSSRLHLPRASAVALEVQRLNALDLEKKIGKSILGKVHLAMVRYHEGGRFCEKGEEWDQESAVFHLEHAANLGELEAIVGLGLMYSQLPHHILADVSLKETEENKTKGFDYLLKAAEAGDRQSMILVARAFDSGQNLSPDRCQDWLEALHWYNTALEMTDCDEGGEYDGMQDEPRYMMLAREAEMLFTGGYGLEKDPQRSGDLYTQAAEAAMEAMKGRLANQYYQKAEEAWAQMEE

Chain of Serine/threonine-protein kinase Sgk1 (Homo sapiens) (O00141 whole entry): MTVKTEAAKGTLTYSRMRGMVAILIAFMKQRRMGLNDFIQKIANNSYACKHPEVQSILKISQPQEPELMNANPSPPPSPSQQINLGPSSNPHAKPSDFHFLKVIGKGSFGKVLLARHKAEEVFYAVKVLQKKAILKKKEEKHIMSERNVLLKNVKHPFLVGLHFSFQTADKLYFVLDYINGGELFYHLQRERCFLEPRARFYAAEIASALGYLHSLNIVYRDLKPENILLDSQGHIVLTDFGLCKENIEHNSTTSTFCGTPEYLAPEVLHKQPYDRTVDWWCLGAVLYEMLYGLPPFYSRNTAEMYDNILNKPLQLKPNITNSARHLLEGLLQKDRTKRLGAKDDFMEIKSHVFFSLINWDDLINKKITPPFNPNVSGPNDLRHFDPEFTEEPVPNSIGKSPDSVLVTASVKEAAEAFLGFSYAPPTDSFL

Activity [2]: 60 to 80% | Activity [3]: > 80%
SMILES: Cc1cccc(-c2nn3c(c2-c2ccc(O)cc2)C(C)C(C)(C)C3)n1 (stereo not drawn)
Activity [1]: Non-Toxic
